These results are taken from US11927585B2, “Solvent-based inks and coatings for food contact applications” (SUN CHEMICAL CORPORATION, priority 2020, dated 2024).

The conditions of series [1]: cited from earlier work.
Series [2] can be described thus: Worst-case calculation, Application 1 yoghurt pot lid exposure scenario. As to conditions: 100% migration, 2.0 g/m^2 dry film.
Series [3] is described as follows: Worst-case calculation (100% migration), standard EU Cube exposure model. As to conditions: 100% migration; for Worst-case calculation as a percentage of SML (or restriction), EU Cube: 2.0 g/m^2 dry film; for Worst Case Calculation of migration in EU Cube model (as a percentage of SML): dry coat weight 2.0 g/m^2.
Series [4] in a line: Worst-case calculation, Application 2 cheese packaging wrap exposure scenario. To be noted: 100% migration, 2.0 g/m^2 dry film.
A short description of series [5]: Specific migration limit (SML) from regulation or hazard assessment (TTC, VEGA QSAR, Cramer Class). As to conditions: source HA (internal hazard assessment), self-derived SML; EU Cube model.
Where [6] appears, read: Source of SML or restriction: SO (Swiss Ordinance).
The mark [7] stands for this setting: source of SML or restriction: SO (Swiss Ordinance).
The mark [8] stands for this setting: substance in ink SBDEV977 (Ex. 4A Yellow).

SMILES strings stand for the structures. Structures can show the parent of a compound that is named as a salt. Where two headings read alike, the source gives them in different places.

As for `CCCCOC(=O)CC(O)(CC(=O)OCCCC)C(=O)OCCCC` [Tributyl citrate], the “SML (or restriction)” value in series [1] (setting [6]) and in series [1] (setting [7]) was 0.05 mg substance/kg food each time.
For `CCCOC(C)=O` [Acetic acid, propyl ester], the “SML (or restriction)” value in series [1] (setting [6]) and in series [1] (setting [7]) was 60 mg substance/kg food in each case.
Turning to `O=C1NCCN1` [0000120-93-4, 2-Imidazolidinone], the “Worst-case calculation as a percentage of SML (or restriction), Application 1” value was 6.3 percentage of SML (or restriction) in series [2] (product SBDEV976); 5.9 percentage of SML (or restriction) in series [2] (product SBDEV977); 5.9 percentage of SML (or restriction) in series [2] (product SBDEV979); 6.3 percentage of SML (or restriction) in series [2] (product SBDEV980); 4.3 percentage of SML (or restriction) in series [2] (product SBDEV1284); 4.7 percentage of SML (or restriction) in series [2] (product SBDEV1285). The “Worst-case calculation as a percentage of SML (or restriction), Application 1” value in series [2] (product SBDEV1286) was 4.7 percentage of SML (or restriction); in series [2] (product SBDEV1287) it was 4.3 percentage of SML (or restriction). Also, the “Worst-case calculation as a percentage of SML (or restriction), EU Cube” value (shortened to “Worst-case calculation as a percentage … EU Cube”) is recorded as 16 percentage of SML (or restriction) in series [3] (product SBDEV976); 15 percentage of SML (or restriction) in series [3] (product SBDEV977); 15 percentage of SML (or restriction) in series [3] (product SBDEV979); 16 percentage of SML (or restriction) in series [3] (product SBDEV980); 11 percentage of SML (or restriction) in series [3] (product SBDEV1284); 12 percentage of SML (or restriction) in series [3] (product SBDEV1285). Also, the “Worst-case calculation as a percentage … EU Cube” value was 12 percentage of SML (or restriction) in series [3] (product SBDEV1286) and 11 percentage of SML (or restriction) in series [3] (product SBDEV1287). Also, the “Worst Case Calculation of migration in EU Cube model (as a percentage of SML)” value in series [3] (substance in ink SBDEV976 (Ex. 4C Cyan)) is 16 percentage of SML; in series [3] (setting [8]) it was 15 percentage of SML; in series [3] (substance in ink SBDEV979 (Ex. 4D Black)), 15 percentage of SML; in series [3] (substance in ink SBDEV980 (Ex. 4B Red)) it was 16 percentage of SML. In addition, the “Worst-case calculation as a percentage of SML (or restriction), Application 2” value is 23.0 percentage of SML (or restriction) in series [4] (product SBDEV976); 21.6 percentage of SML (or restriction) in series [4] (product SBDEV977); 21.6 percentage of SML (or restriction) in series [4] (product SBDEV979); 23.0 percentage of SML (or restriction) in series [4] (product SBDEV980); 15.8 percentage of SML (or restriction) in series [4] (product SBDEV1284); 17.3 percentage of SML (or restriction) in series [4] (product SBDEV1285). The “Worst-case calculation as a percentage of SML (or restriction), Application 2” value is listed as 17.3 percentage of SML (or restriction) in series [4] (product SBDEV1286) and 15.8 percentage of SML (or restriction) in series [4] (product SBDEV1287). In series [5], the “SML or Restriction (mg substance/kg food)” value amounted to 4.98 mg substance/kg food.
For the compound `O=C1NC(=O)c2ccccc21` [0000085-41-6, Phthalimide], the “Worst-case calculation as a percentage of SML (or restriction), Application 1” value is 377.6 percentage of SML (or restriction) in series [2] (product SBDEV977) and 373.7 percentage of SML (or restriction) in series [2] (product SBDEV1287). For the same compound, the “Worst-case calculation as a percentage … EU Cube” value in series [3] (product SBDEV977) is recorded as 960 percentage of SML (or restriction); in series [3] (product SBDEV1287), 950 percentage of SML (or restriction). In addition, the “Worst Case Calculation of migration in EU Cube model (as a percentage of SML)” value in series [3] (setting [8]) is listed as 960 percentage of SML. In addition, the “Worst-case calculation as a percentage of SML (or restriction), Application 2” value in series [4] (product SBDEV977) is on record as 1382.4 percentage of SML (or restriction); in series [4] (product SBDEV1287), 1368.0 percentage of SML (or restriction). For the same compound, in series [5], the “SML or Restriction (mg substance/kg food)” value is 0.09 mg substance/kg food.
